# Experiments:
# [1] = target: T1, human TAS1R2-WT (subunit alone) (Homo sapiens, UniProt Q8TE23); test: Calcium mobilisation assay, TAS1R2-WT subunit alone; format: cell-based
# T1 construct: expressed in transfected cells; host or cells: HEK293T-Gα16gust44
# T1 sequence (Q8TE23 20-839): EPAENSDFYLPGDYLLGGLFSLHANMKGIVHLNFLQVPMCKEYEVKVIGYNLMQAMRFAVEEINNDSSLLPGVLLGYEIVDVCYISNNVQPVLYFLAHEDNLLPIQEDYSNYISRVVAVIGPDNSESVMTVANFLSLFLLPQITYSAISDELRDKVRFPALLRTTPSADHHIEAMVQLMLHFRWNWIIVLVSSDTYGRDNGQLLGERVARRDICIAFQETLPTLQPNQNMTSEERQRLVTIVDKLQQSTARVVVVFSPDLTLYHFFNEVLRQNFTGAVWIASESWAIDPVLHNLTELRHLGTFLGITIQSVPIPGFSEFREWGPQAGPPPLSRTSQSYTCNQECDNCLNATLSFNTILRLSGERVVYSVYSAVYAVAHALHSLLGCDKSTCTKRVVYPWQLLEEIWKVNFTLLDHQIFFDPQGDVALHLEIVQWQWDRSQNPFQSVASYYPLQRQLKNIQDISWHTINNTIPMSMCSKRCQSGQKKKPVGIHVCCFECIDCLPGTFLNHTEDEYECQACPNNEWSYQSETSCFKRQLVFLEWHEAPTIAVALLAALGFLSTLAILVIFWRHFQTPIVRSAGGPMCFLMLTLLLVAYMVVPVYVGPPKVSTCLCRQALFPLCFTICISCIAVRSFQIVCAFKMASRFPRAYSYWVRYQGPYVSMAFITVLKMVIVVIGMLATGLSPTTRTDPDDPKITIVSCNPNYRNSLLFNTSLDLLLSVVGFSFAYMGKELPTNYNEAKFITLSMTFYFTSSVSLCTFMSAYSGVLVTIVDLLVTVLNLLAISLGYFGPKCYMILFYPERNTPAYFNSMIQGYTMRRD
# Text: (§1) The coding sequences for TAS1R2 and TAS1R3 were commercially synthesised, and the human codon was optimised for expression in human cells. The coding sequences of human TAS1R2 and TAS1R3 were subcloned and inserted into the mammalian expression vectors pcDNA6/myc-HisA and pcDNA4/myc-HisA (Invitrogen; Thermo Fisher Scientific; Illkirch, France) between the EcoRI and NotI restriction sites, generating the plasmids pcDNA6-TAS1R2 and pcDNA4-TAS1R3, respectively. To increase protein expression in mammalian cells, an upstream start codon was used, which was a sequence called MAX, corresponding to the QBI SP163 element also described in pcDNA4-HisMax (Invitrogen; Thermo Fisher Scientific; Illkirch, France). To measure the expression level of the receptor by immunohistochemistry, we used the FLAG sequence ([…]) in the C-terminal position, which encodes the FLAG tag epitope. […]
# (§2) The HEK293T cells were kindly provided by Jay P. Slack (Givaudan Flavors Corporation; Cincinnati, OH, USA). […] The fluorescence intensity was measured for 90 s (excitation 488 nm, emission 510 nm) in an automated fluorometric FlexStation®3 Multi-Mode microplate reader (Molecular Devices; San Jose, CA, USA). […] The Ca^2+ changes were expressed as fractional changes in fluorescent light intensity: ΔF/F = (F − F0)/F0, where F was the fluorescent light intensity at each point, and F0 was the value of emitted fluorescent light prior to stimulus application. To calculate dose–response relationships, the changes in fluorescence upon stimulus application were averaged, mock-subtracted and baseline-corrected. […] The half-maximal effective concentrations (EC50 values) and maximal signal amplitudes were calculated using SigmaPlot software (version 15.0) (Systat Software; San Jose, CA, USA).
# (§3) For in vitro calcium mobilisation assay performed on hTAS1R2-SNPs, hTAS1R3-SNPs and mTAS1R3-I60T, 6 to 7 concentrations were tested for each sweet compound, plus buffer alone. All concentration–receptor combinations were measured in duplicate, and each experiment was repeated at least 4 times (8 wells/concentration). […]
# [2] = target: T2, human TAS1R2-C9S (subunit alone) (Homo sapiens, UniProt Q8TE23); test: Calcium mobilisation assay, TAS1R2-C9S subunit alone; format: cell-based
# T2 construct: expressed in transfected cells; host or cells: HEK293T-Gα16gust44
# T2 sequence (Q8TE23 20-839): T1 sequence (Q8TE23 20-839)
# Text: as §1, §2, §3
structure (smiles),measurement,setting,value
"C=C(C)[C@@H]1CC=C(/C=N/O)CC1 [Perillartine, perillartine]",EC50,[1],90 ± 17 µM
same,R1 = Variant EC50/WT EC50,[1],1.0
same,Max ΔF/F0,[1]; maximal signal amplitude,1.06 ± 0.06
same,EC50,[2],190 ± 26.6 µM
same,R1 = Variant EC50/WT EC50,[2],2.1
same,Max ΔF/F0,[2]; maximal signal amplitude,0.44 ± 0.02

# Source: article PMC11945486, “TAS1R2/TAS1R3 Single-Nucleotide Polymorphisms Affect Sweet Taste Receptor Activation by Sweeteners: The SWEET Project” (Nutrients, 2025)
